What was measured:
[1] = Selectivity is the ratio of mean EC50 value against […] cells to that of EC50 value against Plasmodium falciparum; format: functional
Plasmodium falciparum = test: In vitro antimalarial activity against chloroquine-sensitive Plasmodium falciparum FCR3; format: functional, organism-based
FM3A = test: In vitro cytotoxic activity against mouse mammary tumor FM3A cells; format: functional, cell-based

EC50 (Plasmodium falciparum): 0.11 µM
Structure (SMILES): C=C[C@H]1CN2CC[C@H]1C[C@H]2[C@H](O)c1ccnc2ccc(OC)cc12 [QUININE]
Selectivity [1]: 910
EC50 (FM3A): 100 µM
